# Measured values as given in PMC6534257, “Leishmania infantum arginase: biochemical characterization and inhibition by naturally occurring phenolic substances” (Journal of Enzyme Inhibition and Medicinal Chemistry, 2019).
# Several values for one entry are separate records, joined by “and”; a condition that tells them apart may be missing. Identical values can stand only once. Entries after “also recorded” stand apart in the source; their conditions may differ. Like-named read-outs stand apart in the source and are kept apart here.
# Experiments:
# [1] = target: L. amazonensis arginase; conditions: cited from earlier work; for IC50: read-out: IC50 against L. amazonensis arginase; for effect on L. amazonensis arginase (in words): phenolics without catechol group ref 15; for inhibition of L. amazonensis arginase activity: final concentration of 20 μM ref 13
# [2] = test system: axenic amastigote forms of L. donovani; set-up: method as in PMID 16569852; conditions: cited from earlier work
# [3] = test system: L. amazonensis; conditions: cited from earlier work; for reduction of lesion size and parasite burden (in words): compared with reference drug Glucantime ref 42; for mice death or loss of body weight (in words): treated BALB/c mice ref 42
# [4] = test system: L. infantum-infected RAW 264.7 macrophages; assay: Nitric oxide production by infected macrophages (Griess reaction); assay type: cell-based; conditions: for increase in nitrite levels in comparison to the control: 48 h; for effect on NO production by infected macrophages (in words): 48 h treatment
# Experimental: (§1) The intracellular anti-amastigote activity was performed according to previously described procedures[31] with some modifications. Initially, RAW 264.7 macrophages were distributed in 96-well plates and, after adherence (incubation for 2 h), cells were washed twice with phosphate buffer saline (PBS, pH 7.2). Then, the adherent cells were infected with promastigote forms of L. infantum at the stationary phase of growth in a proportion of 10 parasites/macrophage. After 4 h of interaction at 37 °C and 5% CO2 atmosphere, free parasites were washed away with PBS and infected macrophages were incubated for another 24 h to allow differentiation into amastigotes. After this time, infected cells were treated for 48 h with increasing concentrations of the selected inhibitor. Subsequently, the culture supernatant was collected for evaluation of nitric oxide production using the Griess reaction. Cells were washed with PBS, then Schneider’s medium supplemented with 5% FBS was added and the plate was incubated at 26 °C for 72 h. The parasite survival was estimated by viability of differentiated promastigote forms recovered from the cultures using MTT (5 mg/mL). The results were expressed as the percentage of viability in relation to that obtained for the control (100%). The IC50 for amastigote forms was calculated from the dose-response curves generated from the data.
# In order to determine if ARGLi inhibitors were capable of modulating the host cell response, RAW 264.7 macrophages were infected with promastigote forms of L. infantum and treated with different concentrations of inhibitors for 48 h. After treatment, NO production was measured. […] This increase is similar to that observed for the reference drug Fungizone® (Figure 5(B)). The effect of caffeic acid on NO production may be a result of macrophage arginase inhibition and consequent oxidation of accumulated L-arginine by inducible NO synthase (iNOS).
# Figure 5. Nitric oxide production by L. infantum-infected RAW 264.7 macrophages treated with different concentrations of ARGLi inhibitors. (A) Treatment with 3.1–200 μg/mL of rosmarinic acid (black), caffeic acid (light gray), and catechin (dark gray). (B) Treatment with 0.062–0.5 μg/mL of the reference drug fungizone. Control (white) represents the production of nitric oxide by infected and untreated macrophages. Nitrite concentration was measured by the Griess reaction and data represent mean ± SE of two independent experiments.
# [5] = test system: intracellular amastigotes of L. amazonensis; set-up: method as in PMID 24906989; conditions: cited from earlier work
# [6] = test system: L. infantum intracellular amastigotes; assay: Intracellular anti-amastigote activity in infected RAW 264.7 macrophages; assay type: cell-based, Leishmania infantum; conditions: for SI AMA (selectivity index CC50/IC50, intracellular amastigotes): CC50 RAW 264.7 / IC50 intracellular amastigotes; for IC50: Leishmania infantum, RAW264.7, 48 h, read-out: Intracellular amastigotes IC50±SE
# Experimental: as §1
# [7] = test system: L. amazonensis promastigotes; conditions: cited from earlier work
# [8] = test system: bovine hepatic arginase; set-up: method as in PMID 27776374; conditions: cited from earlier work; for percentage of inhibition of bovine hepatic arginase: 100 μM ref 37
# [9] = Cytotoxicity in RAW 264.7 macrophages (MTT); assay type: cell-based; conditions: mouse, read-out: RAW 264.7 CC50±SE
# Experimental: (§2) RAW 264.7 macrophages were cultured in polystyrene culture flasks containing DMEM medium supplemented with 10% FBS at 37 °C and 5% CO2 atmosphere. For cytotoxic evaluation, 48 h cultured cells were harvested, washed with culture medium, and distributed into 96-well culture plates at 10^5 cells/well concentration. The cells were allowed to adhere for 2 h prior to the addition of increasing inhibitor concentrations (31–1000 µg/mL). Treated cell cultures were incubated for 48 h under the same experimental conditions. After this period, cell viability was determined by colorimetric assay using MTT solution (5 mg/mL) as an indicator. The 50% cytotoxic concentration (CC50) was calculated by analysing the dose-response curves generated from the data.
# [10] = test system: BALB/c mice peritoneal macrophages; conditions: cited from earlier work
# [11] = test system: L. infantum promastigotes; assay: Inhibition of L. infantum promastigotes growth (resazurin); assay type: cell-based, Leishmania infantum; conditions: for SI PRO (selectivity index CC50/IC50, promastigotes): CC50 RAW 264.7 / IC50 promastigotes; for IC50: Leishmania infantum, read-out: Promastigotes IC50±SE; for IC50 / Promastigotes IC50±SE: 96 h, 26 °C, resazurin
# Experimental: The parasite growth inhibition assays were performed on 96-well microplates, where the selected ARGLi inhibitors were previously diluted (1–200 μg/mL). Subsequently, promastigote forms of L. infantum collected in late logarithmic phase (96 h) were added to microplates at the final concentration of 10^6 parasites/mL. Microplates were incubated at 26 °C for 96 h. After the incubation period, parasites viability was determined using 0.005% resazurin[30]. The 50% inhibitory concentration (IC50) was determined from the dose-response curves generated from the data.
# [12] = test system: Leishmania infantum arginase (ARGLi); assay: ARGLi inhibition by phenolic substances (urea production); assay type: biochemical; conditions: 100 µM substance, 50 mM L-arginine, pH 9.5, 37 °C, 5 min
# [13] = test system: RAW 264.7 macrophages; assay: Cytotoxicity in RAW 264.7 macrophages (MTT); assay type: cell-based; conditions: 48 h
# Experimental: as §2
# [14] = test system: ARGLi; conditions: read-out: Km for L-arginine; 1 to 50 mM L-arginine, pH 9.5, 37 °C
# Experimental: ARGLi (0.2 µg/mL) was incubated with L-arginine at concentrations ranging from 1 to 50 mM in 50 mM CHES buffer (pH 9.5) at 37 °C for 5 min. Vmax and Km values were determined by the analysis of the initial velocity versus substrate concentration curve using the Michaelis–Menten equation in Graph Prism 6.
# [15] = infected RAW 264.7, 48 h treatment
smiles,measurement,setting,value
"O=c1c(O)c(-c2ccc(O)cc2)oc2cc(O)cc(O)c12 [kaempferol, reference compound]",IC50,[1],50 µM
same,IC50 against L. donovani,[2],2.9 µg/mL
O=c1cc(-c2ccc(O)cc2)oc2cc(O)c([C@@H]3O[C@H](CO)[C@@H](O)[C@H](O)[C@H]3O)c(O)c12 [isovitexin],effect on L. amazonensis arginase (in words),[1],little effect
"O=C(O)/C=C/c1ccc(O)c(O)c1 [Caffeic acid, caffeic acid]",reduction of lesion size and parasite burden (in words),[3],more effective in reducing lesion size and parasite burden
same,mice death or loss of body weight (in words),[3],did not lead to mice death or significant loss of body weight
same,increase in nitrite levels in comparison to the control,[4]; 100 µg/mL,234.6%
same,increase in nitrite levels in comparison to the control,[4]; 200 µg/mL,311.5%
same,effect on NO production by infected macrophages (in words),[4],significantly increased nitric oxide production; also recorded: significantly increased NO production
same,IC50 for intracellular amastigotes of L. amazonensis,[5],2.9 ± 0.3 µg/mL
same,"SI AMA (selectivity index CC50/IC50, intracellular amastigotes)",[6],55.69
same,IC50,[6]; [15],3.95 µg/mL and 21.9 µM
same,IC50 against L. amazonensis promastigote forms,[7],0.9 ± 0.2 µg/mL
same,percentage of inhibition of bovine hepatic arginase,[8],61.3 ± 4.1%
same,IC50,[8],86.7 µM
same,CC50 at 48 h,[9]; RAW 264.7 macrophages,220 µg/mL and 1.22 mM
same,CC50 for BALB/c mice peritoneal macrophages,[10],32.5 ± 2.0 µg/mL
same,"SI PRO (selectivity index CC50/IC50, promastigotes)",[11],20.05
same,IC50,[11],11 µg/mL and 60.8 µM
"O=c1c(O)c(-c2ccc(O)c(O)c2)oc2cc(O)cc(O)c12 [Quercetin, quercetin, reference compound]",IC50,[1],4.3 µM
same,IC50 against L. donovani,[2],1 µg/mL
same,percentage of inhibition of bovine hepatic arginase,[8],64.4 ± 2.5%
same,IC50,[8],31.2 µM
same,percentage of inhibition of ARGLi activity,[12],67.05 ± 10.36%
O=c1cc(-c2ccc(O)cc2)oc2cc(O)cc(O)c12 [apigenin],effect on L. amazonensis arginase (in words),[1],little effect
O=c1cc(-c2ccc(O)cc2)oc2c([C@@H]3O[C@H](CO)[C@@H](O)[C@H](O)[C@H]3O)c(O)cc(O)c12 [vitexin],effect on L. amazonensis arginase (in words),[1],little effect
"COc1cc(-c2oc3cc(O)cc(O)c3c(=O)c2O)ccc1O [Isorhamnetin, isorhamnetin]",IC50 axenic amastigote forms of L. donovani,[2],3.8 µg/mL
same,CC50 at 48 h,[9],> 1000 µg/mL and > 3 mM
same,Promastigotes IC50±SE,[11],258.7 ± 9.50 µg/mL
same,IC50,[11],263 µg/mL and 818 µM
"O=C(/C=C/c1ccc(O)c(O)c1)O[C@@H]1C[C@](O)(C(=O)O)C[C@@H](O)[C@H]1O [Chlorogenic acid, chlorogenic acid]",inhibition of L. amazonensis arginase activity,[1],more than 50%
"COc1cc(O)c2c(=O)c(O)c(-c3ccc(O)c(O)c3)oc2c1 [Rhamnetin, rhamnetin]",IC50 axenic amastigote forms of L. donovani,[2],4.6 µg/mL
same,CC50 at 48 h,[9]; RAW 264.7 macrophages,> 1000 µg/mL and > 3 mM
same,percentage of inhibition of ARGLi activity,[12],~56%
same,percentage of inhibition of ARGLi activity,[12]; listed as rhamnetin,more than 50%
same,Promastigotes IC50±SE,[11],263.2 ± 3.87 µg/mL
same,IC50,[11],259 µg/mL and 832 µM
"O=C(/C=C/c1ccc(O)c(O)c1)O[C@H](Cc1ccc(O)c(O)c1)C(=O)O [Rosmarinic acid, rosmarinic acid]",reduction of lesion size and parasite burden (in words),[3],more effective in reducing lesion size and parasite burden
same,mice death or loss of body weight (in words),[3],did not lead to mice death or significant loss of body weight
same,effect on NO production by infected macrophages (in words),[4],did not affect NO production
same,IC50 for intracellular amastigotes of L. amazonensis,[5],1.7 ± 0.4 µg/mL
same,"SI AMA (selectivity index CC50/IC50, intracellular amastigotes)",[6],61.79
same,IC50,[6]; [15],2.86 µg/mL and 7.9 µM
same,IC50 against L. amazonensis promastigote forms,[7],0.2 ± 0.1 µg/mL
same,CC50 at 48 h,[9],177 µg/mL and 491 µM
same,CC50 for BALB/c mice peritoneal macrophages,[10],33.5 ± 1.4 µg/mL
same,"SI PRO (selectivity index CC50/IC50, promastigotes)",[11],8.56
same,IC50,[11],20.6 µg/mL and 57.3 µM
"Oc1cc(O)c2c(c1)O[C@H](c1ccc(O)c(O)c1)[C@@H](O)C2 [Catechin, catechin, reference compound]",effect on NO production by infected macrophages (in words),[4],did not affect NO production
same,"SI AMA (selectivity index CC50/IC50, intracellular amastigotes)",[6],3.08
same,IC50,[6]; [15],83.2 µg/mL and 287 µM
same,Intracellular amastigotes IC50±SE,[6]; [15],83.28 ± 10.6 µg/mL
same,IC50 for L. amazonensis promastigotes,[7]; catechin isolated from Stryphnodendron obovatum stem bark ref 47,43.2 ± 2.1 µg/mL
same,RAW 264.7 CC50±SE,[13],256.98 ± 0.64 µg/mL
same,CC50 at 48 h,[9]; RAW 264.7 macrophages,257 µg/mL and 885 µM
same,percentage of inhibition of ARGLi activity,[12],49.02 ± 14.92%
same,Promastigotes IC50±SE,[11],114.8 ± 14.65 µg/mL
same,"SI PRO (selectivity index CC50/IC50, promastigotes)",[11],2.23
same,IC50,[11],115 µg/mL and 395 µM
Oc1cc(O)c2c(c1)O[C@H](c1ccc(O)c(O)c1)[C@@H](O)C2 [(+)-catechin],inhibition of L. amazonensis arginase activity,[1],more than 50%
"COc1ccc(/C=C/c2cc(O)cc(O[C@@H]3O[C@H](CO)[C@@H](O)[C@H](O)[C@H]3O)c2)cc1O [Rhaponticin, rhaponticin]",CC50 at 48 h,[9]; RAW 264.7 macrophages,825 µg/mL and 1.96 mM
same,percentage of inhibition of ARGLi activity,[12],more than 50%
same,IC50,[11],> 400 µg/mL and > 1 mM
same,antileishmanial activity against promastigotes (in words),[11]; highest concentration tested,did not inhibit promastigote growth at the highest concentration tested
O=c1cc(-c2ccc(O)c(O)c2)oc2c([C@@H]3O[C@H](CO)[C@@H](O)[C@H](O)[C@H]3O)c(O)cc(O)c12 [orientin],IC50,[1],16 ± 2 µM
O=c1c(O[C@@H]2O[C@H](CO)[C@@H](O)[C@H](O)[C@H]2O)c(-c2ccc(O)c(O)c2)oc2cc(O)cc(O)c12 [isoquercitrin],inhibition of L. amazonensis arginase activity,[1],more than 50%
O=c1cc(-c2ccc(O)c(O)c2)oc2cc(O)cc(O)c12 [luteolin],IC50,[1],9 ± 1 µM
O=c1c(O)c(-c2ccc(O)c(O)c2)oc2cc(O)ccc12 [fisetin],IC50,[1],1.4 ± 0.3 µM
N=C(N)NCCC[C@H](N)C(=O)O [L-arginine],Km,[14],5.1 ± 1.1 mM
O=c1c(O)c(-c2ccccc2)oc2cc(O)cc(O)c12 [galangin],IC50,[1],100 µM
O=c1cc(-c2ccc(O)c(O)c2)oc2cc(O)c([C@@H]3O[C@H](CO)[C@@H](O)[C@H](O)[C@H]3O)c(O)c12 [isoorientin],IC50,[1],9 ± 1 µM
Oc1cc(O)c2c(c1)O[C@H](c1ccc(O)c(O)c1)[C@H](O)C2 [(−)-epicatechin],inhibition of L. amazonensis arginase activity,[1],more than 50%
